Measured values from patent US7786131B2, “Pyrimido[5,4-d]pyrimidines derivatives as irreversible inhibitors of tyrosine kinases” (Warner-Lambert Company, priority 1996, dated 2010).
Like-named read-outs stand apart in the source and are kept apart here.

What was measured:
[1] = tested on: murine 16/c mammary adenocarcinoma; test: Murine 16/c mammary adenocarcinoma model; type: in vivo, mice; settings: doses of up to 120 mg/kg bid
Description: (§1) Female nude mice (NCr nu/nu, Taconic Farms) 18-20 g were implanted SC with tumor fragments (approximately 30 mg) in the region of the right axilla on Day 0. […] The vehicle was 6% dimethyl acetamide in 50 mM lactate buffer, pH 4.0Tumor volumes were recorded three times per week by measuring the length and width of the individual tumors and calculating the mass in milligrams according to the formula (a×b^2)/2, where a and b are the length and width of the tumor. Percent T/C (treated/control) was calculated based on the ratio of the median tumor volume of the treated tumors compared with the median tumor volume of the control tumors on specified measurement days.

[2] = tested on: MCF7 human breast carcinoma; test: MCF-7 tumor xenograft; type: in vivo, mice
Description: as §1

[3] = tested on: A431 human epidermoid carcinoma; test: A431 tumor xenograft; type: in vivo, mice
Description: as §1

[4] = tested on: SK-OV-3 human ovarian carcinoma; test: SK-OV-3 tumor xenograft; type: in vivo, mice; settings: ID dosing bid Days 10-14, 17-21, 24-28, 30 mg/kg
Description: as §1

[5] = molecular target: T1, EGF receptor autophosphorylation in A431 cells (Homo sapiens, UniProt P00533); test: Autophosphorylation assay in A431 cells; type: cell-based
T1 construct: A431 human epidermoid carcinoma cells were grown in 6-well plates; endogenous in cells; host or cells: A431 human epidermoid carcinoma cells
T1 sequence (P00533 25-1210): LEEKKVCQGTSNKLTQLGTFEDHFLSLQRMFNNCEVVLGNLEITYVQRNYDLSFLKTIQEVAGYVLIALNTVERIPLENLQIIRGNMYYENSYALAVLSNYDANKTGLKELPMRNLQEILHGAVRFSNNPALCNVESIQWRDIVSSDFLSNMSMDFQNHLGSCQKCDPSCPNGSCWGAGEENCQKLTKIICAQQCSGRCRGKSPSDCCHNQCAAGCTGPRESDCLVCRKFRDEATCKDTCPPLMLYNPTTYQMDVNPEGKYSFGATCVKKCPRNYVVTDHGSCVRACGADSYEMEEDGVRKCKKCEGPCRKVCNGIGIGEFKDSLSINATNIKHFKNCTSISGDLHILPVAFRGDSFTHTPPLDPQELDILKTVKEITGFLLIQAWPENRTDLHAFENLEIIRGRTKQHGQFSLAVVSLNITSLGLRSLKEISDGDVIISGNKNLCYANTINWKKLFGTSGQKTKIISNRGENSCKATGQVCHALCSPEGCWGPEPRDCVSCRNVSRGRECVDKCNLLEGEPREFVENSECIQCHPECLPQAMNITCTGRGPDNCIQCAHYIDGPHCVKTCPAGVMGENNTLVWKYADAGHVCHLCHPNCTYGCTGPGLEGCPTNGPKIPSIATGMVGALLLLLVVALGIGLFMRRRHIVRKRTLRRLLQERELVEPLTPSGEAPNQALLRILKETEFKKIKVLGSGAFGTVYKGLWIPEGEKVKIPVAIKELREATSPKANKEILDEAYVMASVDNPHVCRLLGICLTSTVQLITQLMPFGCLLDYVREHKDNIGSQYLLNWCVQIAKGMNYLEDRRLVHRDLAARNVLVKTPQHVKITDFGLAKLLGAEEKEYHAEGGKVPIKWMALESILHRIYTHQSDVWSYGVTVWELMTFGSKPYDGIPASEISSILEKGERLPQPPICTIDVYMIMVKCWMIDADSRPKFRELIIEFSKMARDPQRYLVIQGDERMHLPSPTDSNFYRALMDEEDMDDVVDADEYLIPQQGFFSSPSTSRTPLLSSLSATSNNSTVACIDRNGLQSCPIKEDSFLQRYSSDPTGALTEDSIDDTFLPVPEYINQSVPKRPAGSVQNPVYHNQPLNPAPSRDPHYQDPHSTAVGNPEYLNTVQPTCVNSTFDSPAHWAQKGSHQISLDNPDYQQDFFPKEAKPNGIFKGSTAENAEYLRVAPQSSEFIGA
Description: (§2) Extracts were made by lysing the monolayers in 0.2 mL of boiling Laemlli buffer (2% sodium dodecyl sulfate, 5% beta-mercaptoethanol, 10% glycerol and 50 mM tris[hydroxymethyl]aminomethane (Tris), pH 6.8), and the lysates were heated to 100° C. for 5 minutes. Proteins in the lysate were separated by polyacrylamide gel electrophoresis and electrophoretically transferred to nitrocellulose. The membrane was washed once in 10 mM Tris, pH 7.2, 150 mM NaCl, 0.01% Azide (TNA), and blocked overnight in TNA containing 5% bovine serum albumin and 1% ovalbumin. The membrane was blotted for 2 hours with antiphosphotyrosine antibody (UBI, 1 μg/mL in blocking buffer) and then washed twice in TNA, once in TNA containing 0.05% Tween-20 detergent and 0.05% nonidet P-40 detergent and twice in TNA. […] Band intensities were determined with a Molecular Dynamics laser densitometer.
Duplicate sets of cells were treated with a range of concentrations of the designated compound to be tested as an inhibitor for 15 minutes. The cells were then stimulated with 100 ng/mL of EGF for 5 minutes and extracts made as described under the Western Blotting Procedure.

[6] = molecular target: EGF receptor tyrosine kinase (Homo sapiens, UniProt P00533); test: Tyrosine kinase assay, isolated EGF receptor tyrosine kinase; type: biochemical; settings: read-out: EGFR Tyrosine Kinase IC50
Sequence of EGF receptor tyrosine kinase (P00533 25-1210): as above

[7] = molecular target: T1, EGF receptor autophosphorylation in A431 cells; test: Irreversibility test: recovery of EGF receptor autophosphorylation after washout; type: cell-based
Description: as §2
Duplicate sets of cells were treated with 2 μM of designated compound to be tested as an irreversible inhibitor for either 1 or 2 hours. One set of cells was then stimulated with 100 ng/mL of EGF for 5 minutes and extracts made as described under the western blotting procedure. The other set of cells were washed free of the compound with warmed serum-free media, incubated for 2 hours, washed again, incubated another 2 hours, washed again, and then incubated a further 4 hours. This set of cells was then stimulated with EGF and extracts made similar to the first set of cells.

[8] = In vivo toxicity on IP dosing bid (no tumor named)
[9] = tested on: NIH 3T3 fibroblast transfected with the h-EGF receptor; test: EGFR tumor xenograft in nude mice; settings: EGFR tumor, IP bid for 14 days
Description: as §1

[10] = EGF-stimulated EGFR autophosphorylation in A431 cells
[11] = A431 cells, 2 μM inhibitor, EGFR autophosphorylation
[12] = A431 cells, 2 μM inhibitor, washed, 8 hours drug-free

| SMILES | melting point | IC50 [5, 10] [nM] | IC50 ([6]; isolated EGFR kinase) [nM] | % Control After 2-Hour Incubation [7, 11] [%] | % Control After 8 Hours in Drug-Free Media Incubation [7, 12] [%] | further results |
| --- | --- | --- | --- | --- | --- | --- |
| C=CC(=O)Nc1ccc2ncnc(Nc3cccc(Br)c3)c2c1 [Example 11, N-[4-[(3-Bromophenyl)amino]quinazolin-6-yl]acrylamide] | – | – | – | – | – | activity [1]: Inactive; growth delay ([2]; IP bid Days 1-5, 8-12, 15-19, 28 mg/kg): 22.9 days; growth delay ([2]; IP bid Days 1-5, 8-12, 15-19, 47 mg/kg): 17.4 days; growth delay ([3]; IP bid Days 7-11, 21-25, 28 mg/kg): 28.2 days; growth delay ([3]; PO once daily Days 7-21, 100 mg/kg): 2 days; growth delay ([3]; PO once daily Days 7-21, 200 mg/kg): 3.5 days; growth delay [4]: 1.2 days |
| C=CC(=O)N(CCCN1CCOCC1)c1ccc2c(Nc3cccc(Br)c3)ncnc2c1 [Example 4, N-[4-[(3-Bromophenyl)amino]quinazolin-7-yl]-N-[3-morpholinopropyl]acrylamide] | 86 to 88 °C (dec.) | 2090 | 89 | 55 | 98 | – |
| C=CC(=O)Nc1cc2c(Nc3cccc(Br)c3)ncnc2cc1OCCCN1CCN(C)CC1 [Example 24, N-[4-[(3-Bromophenyl)amino]-7-[3-(4,N-methyl-1,N-piperazino)propoxy]quinazolin-6-yl]acrylamide] | 105 to 107 °C | – | – | – | – | IC50 [5]: 7.9 nM; IC50 [6]: 4 nM |
| C#CC(=O)Nc1cc2c(Nc3cccc(Br)c3)ncnc2cn1 [Example 53, N-[4-(3-Bromo-phenylamino)-pyrido[3,4-d]pyrimidin-6-yl]-propynamide] | – | 52 | 0.81 | 0 | 0 | – |
| C=CS(=O)(=O)Nc1cc2c(Nc3cccc(Br)c3)ncnc2cn1 [Example 40, N-[4-(3-Bromo-phenylamino)-pyrido[3,4-d]pyrimidin-6-yl]-ethenylsulfonamide] | – | – | – | – | – | toxicity ([8]; 48 and 20 mg/kg): toxic |
| C=CC(=O)Nc1cc2c(Nc3cccc(Br)c3)ncnc2cc1OCCCn1ccnc1 [Example 25, N-[4-[(3-Bromophenyl)amino]-7-[3-(1,N-imidazyl)propoxy]quinazolin-6-yl]acrylamide] | – | – | – | – | – | IC50 [5]: 21 nM; IC50 [6]: 3 nM; % Control After 2-Hour Incubation [7]: 0%; % Control After 8 Hours in Drug-Free Media Incubation [7]: 0% |
| C=CC(=O)Nc1ccc2sc3c(Nc4cccc(Br)c4)ncnc3c2c1 [Example 42, N-[4-(3-Bromo-phenylamino)-benzo[b]thieno [3,2-d]pyrimidin-8-yl]acrylamide] | – | 173 | 23 | 12 | 50 | – |
| CC(=O)N(c1cccc(Br)c1)c1ncnc2ccc(N3C(=O)C=CC3=O)cc12 [Example 58, N-(3-Bromo-phenyl)-N-[6-(2,5-dioxo-2,5-dihydro-pyrrol-1-yl)-quinazolin-4-yl]-acetamide] | 174 to 175 °C | > 500 | 124 | 81 | 95 | – |
| C=CC(=O)Nc1ccc2ncnc(Nc3cccc(C)c3)c2c1 [Example 19, N-[4-[(3-methylphenyl)amino]quinazolin-6-yl]acrylamide] | – | 4.7 | 0.42 | 0 | 0 | growth delay ([3]; SC-Infusion (Alzet) Days 9-23, 12 mg/kg/day): 15 days; growth delay ([3]; SC-Infusion (Alzet) Days 9-23, 24 mg/kg/day): 14 days; growth delay ([9]; 48 mg/kg): 6.4 days; growth delay ([9]; 77 mg/kg): 7.9 days; growth delay ([9]; 124 mg/kg): 11.8 days; toxicity ([9]; 200 mg/kg): toxic; growth delay [4]: 1.3 days |
| C=CC(=O)Nc1ccc2ncnc(Nc3cccc(Br)c3)c2n1 [Example 41, N-[4-(3-Bromo-phenylamino)-pyrido [3,2-d]pyrimidin-6-yl]-acrylamide] | 226 to 228 °C | 5.6 | 1.1 | 0 | 0 | – |
| C=CC(=O)Nc1ccc2c(Nc3cccc(C)c3)ncnc2c1 [Example 13, N-[4-(3-Methyl-phenylamino)-quinazolin-7-yl]acrylamide] | 269.7 to 270 °C | 90 | 1.6 | 1 | 90 | – |
| C=CC(=O)Nc1cc2c(Nc3cccc(Br)c3)ncnc2cc1OCCCCN(C)C [Example 26, N-[4-[(3-Bromophenyl)amino]-7-[4-(N,N-dimethyl-amino)butoxy]quinazolin-6-yl]acrylamide] | 112 to 115 °C | 3 | 1.7 | 0 | 0 | – |
| C=CC(=O)Nc1ccc2ncnc(Nc3cccc(Cl)c3)c2c1 [Example 18, N-[4-[(3-Chlorophenyl)amino]quinazolin-6-yl]acrylamide] | – | 2.3 | 1.6 | 0 | 0 | – |
| C=CS(=O)(=O)Nc1ccc2c(Nc3cccc(Br)c3)ncnc2c1 [Example 16] | – | 2450 | 3.7 | 30 | 85 | – |
| C=CC(=O)Nc1cc2c(Nc3cccc(C)c3)ncnc2cn1 [Example 37, N-[4-(3-Methyl-phenylamino)-pyrido [3,4-d]pyrimidin-6-yl]acryl] | 221 to 223 °C (dec.) | 8.3 | 0.48 | 0 | 0 | – |
| C=CC(=O)Nc1cc2c(Nc3cccc(Br)c3)ncnc2cc1OCCCN1CCOCC1 [Example 21, N-[4-[(3-Bromophenyl)amino]-7-[3-(4-morpholino)propoxy]quinazolin-6-yl]acrylamide] | – | – | – | – | – | toxicity ([8]; 48 mg/kg): toxic |
| C=CC(=O)Nc1cc2c(Nc3cccc(C)c3)ncnc2cc1OCCCN1CCOCC1 [Example 22, N-[4-[(3-Methylphenyl)amino]-7-[3-(4-moroholino)-propoxy]quinazolin-6-yl]acrylamide] | 69 to 72 °C | 27 | 1.5 | 0 | 0 | – |
| C=CC(=O)Nc1ccc2c(Nc3cccc(Cl)c3)ncnc2c1 [Example 14, N-[4-(3-Chloro-phenylamino)-quinazolin-7-yl]acrylamide] | – | 53 | 0.25 | 0 | 50 | – |
| C=CC(=O)Nc1ccc2c(c1)sc1c(Nc3cccc(Br)c3)ncnc12 [Example 44, N-[4-(3-Bromo-phenylamino)-benzo[b]thieno [3,2-d]pyrimidin-7-yl]acrylamide] | 251 to 252.4 °C | 327 | 21 | 13 | 42 | – |
| C=CC(=O)Nc1cc2c(Nc3cccc(C)c3)ncnc2cc1OCCCN1CCN(C)CC1 [Example 23, N-[4-[(3-Methylphenyl)amino]-7-[3-(4,N-methyl-1,N-piperazino)propoxy]quinazolin-6-yl]acrylamide] | – | 18 | 2 | 0 | 0 | – |
